Where a name gives a salt, the structure may show the parent alone.

The first assay has as its system seizures.
Assay: not given
The following applies: man; cited from earlier work.
As for `O=C1NC(=O)C(c2ccccc2)(c2ccccc2)N1` [phenytoin], the “plasma level at which seizures are controlled” value is 10 µg/mL.

In another assay the test system is tonic extensor seizures elicited by maximal electroshock. The experiment in a line: electroshock induced convulsion inhibition assay (E.S.). The following applies: Mus musculus; oral dose (gavage), mice, 0.1 second 50 milliampere corneal electroshock; at the time after dosing providing an optimal response. It counts as in vivo, Cox standard strain albino male mice. The text has this:
The compounds of Formula I are anticonvulsant agents with a high therpeutic ratio and long half-life and are therefore useful in the treatment and prevention of convulsions in mammals. […] The compounds are effective against tonic extensor seizures elicited by maximal electroshock and should therefore be useful for treating generalized tonic-clonic ("grand mal"), cortical focal, complex partial (temporal lobe epilepsy), simple partial (focal moor), and post-traumatic seizures in humans. […] In the electroshock induced convulsion inhibition assay (E.S.), the compound to be tested was suspended in acacia and administered by gavage to each of ten Cox standard strain albino male mice (18-24 g) at the dose level being investigated. […] The animals were examined and evaluated immediately after the electroshock for the occurrence of clonic, flexor tonic, or extensor tonic convulsions, or death and the ED50 was determined for each compound as the dose which inhibited the occurrence of extensor tonic convulsions in one half of the animals immediately after the electroshock. For comparison, 18 milliamperes was usually sufficient to produce extensor tonic convulsions in about half of the control animals; at 50 milliamperes, almost all control animals (receiving vehicle only) […]. The test results summarized in Table I are reported as the ED50 values at the time interval found to provide an optimal response after dosing.
One may read the ED50 as the dose at which the effect has come halfway, by size or by number of responders. A higher ED50 goes with weaker potency. On to `Cc1cc(C(=O)NC(C)c2ccccc2)ccc1N` (racemic) [Example 12, (R,S)-4-amino-3-methyl-N-(1-phenylethyl)benzamide hydrochloride], for which the ED50 came to 20 mg/kg.
On the same count and under the same terms, under `Cc1cc(C(=O)NC(C)c2ccccc2)cc(C)c1N` (racemic) [Example 22, (R,S)-4-amino-3,5-dimethyl-N-(1-phenylethyl)benzamide] stands 26.7 mg/kg.
Same read-out and setting: under `Cc1ccccc1CNC(=O)c1cc(C)c(N)c(C)c1` [Example 13, 4-Amino-3,5-dimethyl-N-[(2-methylphenyl)methyl]benzamide] stands 20 mg/kg.
Still for that read-out and setting: under `Cc1cc(C(=O)Nc2c(C)cccc2C)ccc1N` [Example 14, 4-Amino-N-(2,6-dimethylphenyl)-3-methylbenzamide] stands 3.8 mg/kg; under `Cc1cc(C(=O)Nc2c(C)cccc2C)cc(C)c1N` [Example 15, 4-Amino-N-(2,6-dimethylphenyl)-3,5-dimethylbenzamide], 5.6 mg/kg; under `Cc1cc(C(=O)Nc2ccccc2C)ccc1N` [Example 16, 4-Amino-3-methyl-N-(2-methylphenyl)benzamide], 5.4 mg/kg.
`Cc1cc(C(=O)NCc2ccccc2)cc(C)c1N` [Example 17, 4-Amino-3,5-dimethyl-N-benzylbenzamide] showed an ED50 of 75 mg/kg.
For the molecule `Cc1cc(C(=O)NCc2ccccc2C)ccc1N` [Example 18, 4-Amino-3-methyl-N-(2-methylbenzyl)benzamide], it took a dose of 16.3 mg/kg to reach the 50% effect level (ED50). Compared with the last molecule, the ED50 is about 4.6-fold lower.
`Cc1cc(C(=O)NCc2ccccc2)ccc1N.Cl` [Example 19, 4-Amino-3-methyl-N-benzylbenzamide hydrochloride] registered an ED50 of 9.6 mg/kg.
In turn, `Cc1cc(C(=O)N[C@H](C)c2ccccc2)cc(C)c1N` [Example 20, (R)-4-amino-3,5-dimethyl-N-(1-phenylethyl)benzamide] displayed an ED50 of 46.8 mg/kg. Against the preceding molecule, the ED50 is about 4.9-fold higher.
Regarding `Cc1cc(C(=O)N[C@@H](C)c2ccccc2)cc(C)c1N` [Example 21, (S)-4-amino-3,5-dimethyl-N-(1-phenylethyl)benzamide], the ED50 worked out at 60.5 mg/kg. This ED50 and that of the molecule before are within 1.5-fold of each other.
